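Cultured in 96-well plates, cells were exposed to test compound for 48 hours across five concentrations. TGI is the concentration that stops growth completely.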
Key:
Assay in all cases: DTP human tumour cell line panel, 48 h
786-0 renal = tested on: 786-0 renal
CAKI-1 renal = tested on: CAKI-1 renal
CCRF-CEM leukemia = tested on: CCRF-CEM leukemia
DLD-1 colon = tested on: DLD-1 colon
DMS 114 small cell lung = tested on: DMS 114 small cell lung
DMS 273 small cell lung = tested on: DMS 273 small cell lung
EKVX NSCLC = tested on: EKVX NSCLC
HOP-18 NSCLC = tested on: HOP-18 NSCLC
KM20L2 colon = tested on: KM20L2 colon
LOX IMVI melanoma = tested on: LOX IMVI melanoma
LXFL 529 NSCLC = tested on: LXFL 529 NSCLC
M19-MEL melanoma = tested on: M19-MEL melanoma
SN12C renal = tested on: SN12C renal
TK-10 renal = tested on: TK-10 renal
XF 498 CNS = tested on: XF 498 CNS
HCC-2998 colon = tested on: HCC-2998 colon
MCF7 breast = tested on: MCF7 breast
MDA-MB-435 = tested on: MDA-MB-435
T-47D breast = tested on: T-47D breast

**Q.** Which results are given for `COc1ccc(N=Cc2ccc(N(CCC#N)S(=O)(=O)c3ccccc3)cc2)cc1`?
**A.** TGI (786-0 renal): > 100 µM; TGI (CAKI-1 renal): > 100 µM; TGI (CCRF-CEM leukemia): > 100 µM; TGI (DLD-1 colon): > 100 µM; TGI (DMS 114 small cell lung): > 100 µM; TGI (DMS 273 small cell lung): > 100 µM; TGI (EKVX NSCLC): > 100 µM; TGI (HOP-18 NSCLC): > 100 µM; TGI (KM20L2 colon): > 100 µM; TGI (LOX IMVI melanoma): > 100 µM; TGI (LXFL 529 NSCLC): > 100 µM; TGI (M19-MEL melanoma): > 100 µM; TGI (SN12C renal): > 100 µM; TGI (TK-10 renal): > 100 µM; TGI (XF 498 CNS): > 100 µM

**Q.** How did the TGI (786-0 renal) turn out when `CN(C)C(=S)/N=c1\ssc(=S)n1Cc1cccnc1` was run?
**A.** > 100 µM

**Q.** And the TGI (CAKI-1 renal)?
**A.** > 100 µM

**Q.** What about the TGI (CCRF-CEM leukemia) of the same molecule?
**A.** > 86.1 µM

**Q.** What about the TGI (DLD-1 colon) of the same molecule?
**A.** > 100 µM

**Q.** And the TGI (DMS 114 small cell lung)?
**A.** 3.89 µM

**Q.** And the TGI (DMS 273 small cell lung)?
**A.** > 100 µM

**Q.** And the TGI (EKVX NSCLC)?
**A.** > 100 µM

**Q.** What about the TGI (HCC-2998 colon) of the same molecule?
**A.** > 100 µM

**Q.** And the TGI (HOP-18 NSCLC)?
**A.** > 100 µM

**Q.** And the TGI (KM20L2 colon)?
**A.** 4.27 µM

**Q.** What about the TGI (LOX IMVI melanoma) of the same molecule?
**A.** > 100 µM

**Q.** And the TGI (LXFL 529 NSCLC)?
**A.** > 100 µM

**Q.** And the TGI (M19-MEL melanoma)?
**A.** > 46.6 µM

**Q.** And the TGI (MCF7 breast)?
**A.** > 100 µM

**Q.** What about the TGI (MDA-MB-435) of the same molecule?
**A.** 1.57 µM

**Q.** What about the TGI (SN12C renal) of the same molecule?
**A.** > 100 µM

**Q.** What about the TGI (T-47D breast) of the same molecule?
**A.** > 100 µM

**Q.** What about the TGI (TK-10 renal) of the same molecule?
**A.** > 100 µM

**Q.** What about the TGI (XF 498 CNS) of the same molecule?
**A.** 47.1 µM

**Q.** What does the source list for `CCOc1ccc(/C(Cl)=C(\C=O)c2ccc(OC)c(OC)c2)cc1OCC`?
**A.** TGI (786-0 renal): > 100 µM; TGI (CAKI-1 renal): > 100 µM; TGI (CCRF-CEM leukemia): > 100 µM; TGI (DLD-1 colon): > 100 µM; TGI (DMS 114 small cell lung): 66.1 µM; TGI (DMS 273 small cell lung): > 100 µM; TGI (EKVX NSCLC): > 100 µM; TGI (HCC-2998 colon): > 100 µM; TGI (HOP-18 NSCLC): > 100 µM; TGI (KM20L2 colon): > 100 µM; TGI (LOX IMVI melanoma): > 100 µM; TGI (LXFL 529 NSCLC): > 100 µM; TGI (M19-MEL melanoma): > 100 µM; TGI (SN12C renal): > 100 µM; TGI (TK-10 renal): > 100 µM; TGI (XF 498 CNS): > 100 µM

**Q.** Which results are given for `Cc1ccc(N2C(=O)CS/C2=C(\C#N)c2nc3ccccc3[nH]2)cc1`?
**A.** TGI (786-0 renal): > 100 µM; TGI (CAKI-1 renal): > 100 µM; TGI (CCRF-CEM leukemia): > 100 µM; TGI (DLD-1 colon): > 100 µM; TGI (DMS 114 small cell lung): > 100 µM; TGI (DMS 273 small cell lung): > 100 µM; TGI (EKVX NSCLC): > 100 µM; TGI (HCC-2998 colon): > 100 µM; TGI (HOP-18 NSCLC): > 100 µM; TGI (KM20L2 colon): > 100 µM; TGI (LOX IMVI melanoma): > 100 µM; TGI (LXFL 529 NSCLC): > 100 µM; TGI (M19-MEL melanoma): > 100 µM; TGI (SN12C renal): > 100 µM; TGI (TK-10 renal): > 100 µM; TGI (XF 498 CNS): > 100 µM

**Q.** Which TGI (786-0 renal) does the source give for `N#C/C(c1nc2ccccc2[nH]1)=c1\s/c(=C/c2ccc(Cl)cc2)c(=O)n1-c1ccccc1` here?
**A.** > 100 µM

**Q.** And the TGI (CAKI-1 renal)?
**A.** > 100 µM

**Q.** And the TGI (CCRF-CEM leukemia)?
**A.** > 100 µM

**Q.** What about the TGI (DLD-1 colon) of the same molecule?
**A.** > 100 µM

**Q.** What about the TGI (DMS 114 small cell lung) of the same molecule?
**A.** > 100 µM

**Q.** And the TGI (DMS 273 small cell lung)?
**A.** > 100 µM

**Q.** What about the TGI (EKVX NSCLC) of the same molecule?
**A.** > 100 µM

**Q.** And the TGI (HCC-2998 colon)?
**A.** > 100 µM

**Q.** And the TGI (HOP-18 NSCLC)?
**A.** > 100 µM

**Q.** What about the TGI (KM20L2 colon) of the same molecule?
**A.** > 100 µM

**Q.** What about the TGI (LOX IMVI melanoma) of the same molecule?
**A.** > 100 µM

**Q.** And the TGI (LXFL 529 NSCLC)?
**A.** > 100 µM

**Q.** What about the TGI (M19-MEL melanoma) of the same molecule?
**A.** > 100 µM

**Q.** And the TGI (SN12C renal)?
**A.** > 100 µM

**Q.** And the TGI (TK-10 renal)?
**A.** > 100 µM

**Q.** What about the TGI (XF 498 CNS) of the same molecule?
**A.** > 100 µM

From PubChem BioAssay (NCI)
